{
  "source": "paper PMC7395068",
  "about": "“The evolution of strategies to minimise the risk of human drug-induced liver injury (DILI) in drug discovery and development” (Archives of Toxicology, 2020)",
  "key": {"[1]": {"settings": "cited from earlier work"}, "human hepatocytes": {"system": "human hepatocytes", "settings": "cited from earlier work"}, "[2]": {"system": "THLE or HepG2 cells, isolated mitochondria, BSEP", "settings": "cited from earlier work"}, "PHH": {"system": "PHH", "settings": "cited from earlier work"}, "hLiMTs [3]": {"system": "hLiMTs", "settings": "cited from earlier work"}, "PHH spheroids": {"system": "PHH spheroids", "settings": "cited from earlier work"}, "[4]": {"system": "HepG2 C3A spheroid, BSEP, Glu/Gal in HepG2 cells, bioactivation", "settings": "cited from earlier work"}, "[5]": {"settings": "plasma free fraction; cited from earlier work"}, "[6]": {"settings": "cited from earlier work", "remark": "listed apart in the source"}, "[7]": {"system": "HepG2 cells, primary human hepatocytes", "settings": "In vitro Assay; ref Garside 2014; cited from earlier work"}, "[8]": {"system": "isolated mouse liver mitochondria", "settings": "In vitro Assay; ref Porceddu 2012; cited from earlier work"}, "hLiMTs [9]": {"system": "hLiMTs", "assay": "Combined HCI (HCS) and cellular ATP 3D assay in hLiMTs", "settings": "for AC50 / minimal effective concentration: Homo sapiens"}, "HepaRG spheroids": {"system": "HepaRG spheroids", "assay": "Combined HCI (HCS) and cellular ATP 3D assay in HepaRG spheroids", "settings": "for AC50 / minimal effective concentration: Homo sapiens"}, "[10]": {"settings": "Modeled in vitro assays (cytotoxicity, mitochondrial dysfunction, BSEP), ref Aleo et al. 2019"}, "[11]": {"settings": "In vitro Assay, ref Proctor 2017"}, "[12]": {"settings": "Microtissue model structural based (HCI), combined HCS and ATP, MEC < 25 × Cmax.tot cut-off"}},
  "note": "Read-outs that look alike come from different tables or passages of the source.",
  "data": [
    {"smiles": "C1CCC(C(CC2CCCCN2)C2CCCCC2)CC1", "note": "(centres unmarked) [perhexiline]", "values": [
      {"measurement": "DILI severity category (Chen et al. [2016])", "setting": "[1]; LTKB DILIrank category, ref Chen et al. 2016", "value": "Most"},
      {"measurement": "DILI severity category (Chen 2016)", "setting": "[1]; human DILI classification, LTKB DILIrank, ref Chen et al. 2016", "value": "Most"},
      {"measurement": "DILI severity category", "setting": "[1]; human DILI severity, ref Chen et al.", "value": "Most"},
      {"measurement": "DILI +VE (5-8), DILI -VE (-4)", "setting": "[1]; ref Chen 2016", "value": "+VE"},
      {"measurement": "DILI severity category", "setting": "[1]; ref Chen 2016", "value": "vMost-DILI-Concern"},
      {"measurement": "Structural based (HCI)", "setting": "human hepatocytes; In vitro Assay, ref Xu 2008", "value": "+VE"},
      {"measurement": "DILI in vitro assay prediction, Xu (2008)", "setting": "human hepatocytes; Structural based (HCI), human hepatocytes, ref Xu et al. 2008", "value": "+VE"},
      {"measurement": "Partition Hybrid HRM Score", "setting": "[2]; In vitro Assay, ref Aleo 2019", "value": "+VE"},
      {"measurement": "Ro2 Hybrid HRM Score", "setting": "[2]; In vitro Assay, ref Aleo 2019", "value": "+VE"},
      {"measurement": "Partition Hybrid HRM Score ≥4, Aleo (2019)", "setting": "[2]; [10]", "value": "+VE (Partition Hybrid HRM Score ≥4)"},
      {"measurement": "Partition Hybrid HRM Score ≥8, Aleo (2019)", "setting": "[2]; [10]", "value": "+VE (Partition Hybrid HRM Score ≥8)"},
      {"measurement": "Rule of Two hybrid HRM Score ≥3, Aleo (2019)", "setting": "[2]; [10]", "value": "+VE (Rule of Two hybrid HRM Score ≥3)"},
      {"measurement": "Rule of Two hybrid HRM Score ≥8, Aleo (2019)", "setting": "[2]; [10]", "value": "+VE (Rule of Two hybrid HRM Score ≥8)"},
      {"measurement": "PHH/100uM, Proctor (2017)", "setting": "PHH; 2D PHH, ATP, IC50 threshold 100 µM, ref Proctor et al. 2017", "value": "+VE (IC50 threshold of 100 µM)"},
      {"measurement": "PHH ATP <100uM", "setting": "PHH; [11]", "value": "+VE (IC50 threshold of 100 µM)"},
      {"measurement": "hLiMTs ATP <100uM", "setting": "hLiMTs [3]; [11]", "value": "+VE (IC50 threshold of 100 µM)"},
      {"measurement": "hLiMTs/100uM, Proctor (2017)", "setting": "hLiMTs [3]; hLiMTs, ATP, IC50 threshold 100 µM, ref Proctor et al. 2017", "value": "+VE (IC50 threshold of 100 µM)"},
      {"measurement": "hLiMTs ATP <20 x Cmax", "setting": "PHH spheroids; In vitro Assay, ref Vorrink 2018", "value": "+VE (IC20 < 20 × Cmax.tot cut-off)"},
      {"measurement": "DILI in vitro assay prediction, Vorrink (2018)", "setting": "PHH spheroids; PHH spheroids, ATP, 14 days, IC20 < 20 × Cmax.tot, ref Vorrink et al. 2018", "value": "+VE (IC20 < 20 × Cmax.tot cut-off)"},
      {"measurement": "Bayesian Machine Learning DILI prediction, Williams (2019)", "setting": "[4]; Bayesian modeling, ref Williams et al. 2019", "value": "+VE"},
      {"measurement": "Bayesian Machine Learning", "setting": "[4]; In vitro Assay, ref Williams 2019", "value": "+VE"},
      {"measurement": "fu", "setting": "[5]", "value": 0.100},
      {"measurement": "Assigned DILI category", "setting": "[6]; Chen et al. 2016 or literature alignment, ref Chen et al. 2016", "value": 3},
      {"measurement": "In vivo DILI", "setting": "[6]; […]", "value": "+VE"},
      {"measurement": "In vivo DILI", "setting": "[6]; ref Aleo 2019", "value": "+VE"},
      {"measurement": "In vivo DILI", "setting": "[6]; ref Garside 2014", "value": "+VE"},
      {"measurement": "In vivo DILI", "setting": "[6]; ref Porceddu 2012", "value": "+VE"},
      {"measurement": "In vivo DILI", "setting": "[6]; ref Proctor 2017", "value": "+VE"},
      {"measurement": "In vivo DILI", "setting": "[6]; ref Vorrink 2018", "value": "+VE"},
      {"measurement": "In vivo DILI", "setting": "[6]; ref Williams 2019", "value": "+VE"},
      {"measurement": "In vivo DILI", "setting": "[6]; ref Xu 2008", "value": "+VE"},
      {"measurement": "Cluster 1-6 +VE Assay", "setting": "[7]", "value": "+VE"},
      {"measurement": "in vitro data EC2<=1x Cmax", "setting": "[8]", "value": "+VE"},
      {"measurement": "in vitro data EC20<=2uM", "setting": "[8]", "value": "+VE"},
      {"measurement": "AC50", "setting": "hLiMTs [9]; read-out: ATP endpoint AC50", "value": 1.69, "unit": "µM"},
      {"measurement": "minimal effective concentration", "setting": "hLiMTs [9]; read-out: ATP endpoint MEC", "value": 1.49, "unit": "µM"},
      {"measurement": "AC50", "setting": "hLiMTs [9]; read-out: HCS endpoint AC50", "value": 1.75, "unit": "µM"},
      {"measurement": "minimal effective concentration", "setting": "hLiMTs [9]; read-out: HCS endpoint MEC", "value": 0.354, "unit": "µM"},
      {"measurement": "DILI prediction hLiMTs (HCS-MEC)", "setting": "hLiMTs [9]; [12]", "value": "+VE (MEC < 25 × Cmax.tot cut-off)"},
      {"measurement": "hLiMTs <25x Avg Cmax ATP", "setting": "hLiMTs [9]; hLiMTs, ATP endpoint, cut-off <25x Avg Cmax", "value": "+ve"},
      {"measurement": "hLiMTs <100x Avg Cmaxu ATP", "setting": "hLiMTs [9]; hLiMTs, ATP endpoint, cut-off <100x Avg Cmaxu", "value": "+ve (<100x Avg Cmaxu)"},
      {"measurement": "hLiMTs <25x Avg Cmax HCS", "setting": "hLiMTs [9]; hLiMTs, HCS endpoints, cut-off <25x Avg Cmax", "value": "+ve"},
      {"measurement": "hLiMTs <100x Avg Cmaxu HCS", "setting": "hLiMTs [9]; hLiMTs, HCS endpoints, cut-off <100x Avg Cmaxu", "value": "+ve (<100x Avg Cmaxu)"},
      {"measurement": "hLiMTs <25x Avg Cmax All", "setting": "hLiMTs [9]; hLiMTs, all endpoints (ATP and HCS), cut-off <25x Avg Cmax", "value": "+ve"},
      {"measurement": "hLiMTs Cmax max All", "setting": "hLiMTs [9]; hLiMTs, all endpoints, Cmax max used", "value": "+ve"},
      {"measurement": "hLiMTs Cmax min All", "setting": "hLiMTs [9]; hLiMTs, all endpoints, Cmax min used", "value": "+ve"},
      {"measurement": "hLiMTs <10 uM All", "setting": "hLiMTs [9]; hLiMTs, all endpoints, cut-off <10 uM", "value": "+ve (<10 uM)"},
      {"measurement": "hLiMTs <100x Avg Cmaxu All", "setting": "hLiMTs [9]; hLiMTs, all endpoints, cut-off <100x Avg Cmaxu", "value": "+ve (<100x Avg Cmaxu)"},
      {"measurement": "HepaRG <25x Avg Cmax ATP", "setting": "HepaRG spheroids; HepaRG, ATP endpoint, cut-off <25x Avg Cmax", "value": "+ve"},
      {"measurement": "HepaRG <100x Avg Cmaxu ATP", "setting": "HepaRG spheroids; HepaRG, ATP endpoint, cut-off <100x Avg Cmaxu", "value": "+ve (<100x Avg Cmaxu)"},
      {"measurement": "HepaRG <25x Avg Cmax HCS", "setting": "HepaRG spheroids; HepaRG, HCS endpoints, cut-off <25x Avg Cmax", "value": "+ve"},
      {"measurement": "HepaRG <100x Avg Cmaxu HCS", "setting": "HepaRG spheroids; HepaRG, HCS endpoints, cut-off <100x Avg Cmaxu", "value": "+ve (<100x Avg Cmaxu)"},
      {"measurement": "HepaRG <25x Avg Cmax All", "setting": "HepaRG spheroids; HepaRG, all endpoints (ATP and HCS), cut-off <25x Avg Cmax", "value": "+ve"},
      {"measurement": "HepaRG Cmax max All", "setting": "HepaRG spheroids; HepaRG, all endpoints, Cmax max used", "value": "+ve"},
      {"measurement": "HepaRG Cmax min All", "setting": "HepaRG spheroids; HepaRG, all endpoints, Cmax min used", "value": "+ve"},
      {"measurement": "HepaRG <10 uM All", "setting": "HepaRG spheroids; HepaRG, all endpoints, cut-off <10 uM", "value": "+ve (<10 uM)"},
      {"measurement": "HepaRG <100x Avg Cmaxu All", "setting": "HepaRG spheroids; HepaRG, all endpoints, cut-off <100x Avg Cmaxu", "value": "+ve (<100x Avg Cmaxu)"},
      {"measurement": "AC50", "setting": "HepaRG spheroids; HepaRG, read-out: ATP endpoint AC50", "value": 3.69, "unit": "µM"},
      {"measurement": "minimal effective concentration", "setting": "HepaRG spheroids; HepaRG, read-out: ATP endpoint MEC", "value": 1.76, "unit": "µM"},
      {"measurement": "AC50", "setting": "HepaRG spheroids; HepaRG, read-out: HCS endpoint AC50", "value": 6.32, "unit": "µM"},
      {"measurement": "minimal effective concentration", "setting": "HepaRG spheroids; HepaRG, read-out: HCS endpoint MEC", "value": 0.693, "unit": "µM"},
      {"measurement": "DILI prediction HepaRG spheroids (HCS-MEC)", "setting": "HepaRG spheroids; [12]", "value": "+VE (MEC < 25 × Cmax.tot cut-off)"}
    ]}
  ]
}
